According to patent US9963474B2, “Mitochondria-targeted dicarbonyl sequestering compounds” (MEDICAL RESEARCH COUNCIL, priority 2013, dated 2018):

Columns and labels:
BAECs [1] = test: Quantification of MQE and QE in cells by LC-MS/MS; assay type: cell-based, bovine; settings: 2 μM MitoG; for amounts of MQE and QE detected after exogenous methylglyoxal or glyoxal: 10 mM AG or 2 μM FCCP
Experimental: (A) and (B) BAECs were incubated with 2 μM MitoG for 1 h and sometimes supplemented with 10 mM AG or 2 μM FCCP. Methylglyoxal (A) or glyoxal (B) were then added, and after a further 3 h incubation the levels of MQE and QE in the cell layers were determined by LC-MS/MS relative to deuterated ISs. (C, D) BAECs were incubated in media containing low (5 mM) or high (30 mM) D-glucose with 2 μM MitoG for the times indicated. Levels of MQE (C) and QE (D) in the cell layers were determined by LC-MS/MS relative to deuterated ISs. Results are means±S.E. of four independent experiments. (E) BAECs were incubated for 4 h in the presence of 2 μM MitoG in media containing either 5 mM D-glucose (low), 30 mM D-glucose (high), 5 mM D-glucose/25 mM L-glucose (L-glucose), or 30 mM D-glucose/10 mM aminoguanidinium. Levels of MQE in the cell layers were determined by LC-MS/MS relative to deuterated ISs. (F) BAECs were incubated in media containing high (30 mM) D-glucose with 2 μM MitoG for 4 h with the indicated concentrations of the glyoxalase I inhibitor bromobenzyl glutathione cyclopentyl diester. Levels of MQE and QE in the cell layers were then determined by LC-MS/MS relative to deuterated ISs. Results are means±S.E. of three determinations. Results are means±S.E. of three (A, B) or four (C-E) independent experiments. *, P<0.05 or **, P<0.01, relative to untreated (A, B) or indicated (C-E) controls; ##, P<0.01 relative to cells treated with 250 μM 1,2-dicarbonyl.
For LC-MS/MS analysis of MitoG reaction products cells were incubated in T25 flasks (Nunc) with 2 μM MitoG at 37° C. Cell monolayers were washed (1 ml PBS), scraped into 1.5 ml PBS and pelleted by centrifugation (16,000 g for 2 min). The pellet was re-suspended in 250 μl 100% acetonitrile/0.1% spiked with deuterated internal standards (ISs) ([…] each of d15-MQE and d15-QE), vortexed and centrifuged (2×16,000 g for 15 min). Samples were dried under vacuum (Savant SpeedVac), re-suspended in 100 μl 20% acetonitrile/0.1% formic acid, vortexed, centrifuged (16,000 g for 10 min), transferred to silanised autosampler vials [Chromacol #1.5HRRV(S)], flushed and sealed under argon and then stored at −80° C. until LC-MS/MS analysis. Where specified, cells were subjected to acute glycaemia treatment and were incubated either in low glucose (5 mM D-glucose), high glucose (30 mM D-glucose), or in osmotic control medium (5 mM D-glucose+25 mM L-glucose) for 4 h.
LC-MS/MS analyses were carried out using a triple quadrupole mass spectrometer (Waters Xevo TQ-S) with an I-class Aquity LC system (Waters) attached. Samples were kept at 4° C. prior to injection by the autosampler of 10 μl into a 15 μl flow-through needle and RP-HPLC at 30° C. using a Luna 5 Phenyl-Hexyl column (1×50 mm, 5 μm; Phenomenex) with a Phenyl-Hexyl guard column (2×4 mm; Phenomenex). Buffers used were MS buffer A [0.1% (v/v) formic acid in water] and MS buffer B [95% acetonitrile/0.1% formic acid (both v/v)]. A gradient was run at […] as follows: 0-2 min—5% B; 2-3 min—5-25% B; 3-5 min—25-75% B; 5-7 min—75-100% B; 7-10 min—100% B; 10-12 min—100-5% B; 12-20 min—5% B. Eluant was diverted to waste from the mass spectrometer at 0-5 min and 16-20 min acquisition time using an in-line divert valve. […] Transitions used for quantification were as follows: MQE, 506>262; d15-MQE, 521>277; QE, 492>262 and d15-QE, 507>277. […]

[2] = tested on: RLM respiring on glutamate/malate; test: Protection against dicarbonyl-induced respiratory depression in isolated RLM; design: species or system rat; settings: 37° C.; for protection against methylglyoxal-induced respiratory depression: 0.5 mM methylglyoxal; for protection against glyoxal-induced respiratory depression: 5 mM glyoxal
Experimental: (§1) Isolated RLM respiring on glutamate/malate were incubated with MitoG, methoxyphenylenediamine (MP) or butylTPP for 2 min, followed by 0.5 mM methylglyoxal or 5 mM glyoxal for 5 min. ADP was then added and the rate of oxygen consumption monitored at 37° C. (see FIGS. 12A & 12B). C2C12 cells were pre-treated with MitoG, methoxyphenylenediamine (MP) or butylTPP for 1 h before exposure to 1 mM methylglyoxal or 5 mM glyoxal (see FIGS. 12C & 12D). Following an overnight incubation, cell survival was determined using the MTS assay. Similar experiments were conducted in BAECs pre-treated with MitoG, MP or butylTPP. For all experiments, concentrations of methylglyoxal and glyoxal used were chosen based on results from studies conducted prior to the protection assays. In these prior studies, RLM or cells were exposed to a range of dicarbonyl concentrations, and the phosphorylating rates of respiration or cell survival were evaluated. The results of these earlier experiments are shown in insets, and dicarbonyl concentrations that had caused significant respiratory depression or cell death were chosen for use in the protection assays. Data for all groups were normalized against untreated controls. For RLM, the rate of respiration by untreated controls was taken to be 100%; for cells, cell survival of untreated controls was taken to be 100%. Results are expressed as mean±S.E. of three independent experiments. MitoG was protective against methylglyoxal-induced respiratory depression and both methylglyoxal- and glyoxal-induced cell death in C2C12 cells and BAECs. […] In FIG. 12 the symbols *, ** respectively indicate that P<0.05 or P<0.01 relative to dicarbonyl-only groups; and the symbols +, ++ respectively indicate that P<0.05 or P<0.01 relative to untreated controls.

C2C12 cells = test: Protection against dicarbonyl-induced cell death, C2C12, MTS assay; assay type: cell-based, mouse; settings: pre-treated 1 h, overnight; for protection against methylglyoxal-induced cell death: C2C12, 1 mM methylglyoxal; for protection against glyoxal-induced cell death: C2C12, 5 mM glyoxal
Experimental: as §1

BAECs [3] = test: Protection against dicarbonyl-induced cell death, BAECs, MTS assay; assay type: cell-based, bovine; settings: pre-treated 1 h, overnight
Experimental: as §1

[4] = tested on: C57Bl6/J mice with STZ-induced Type I diabetes; test: STZ-induced Type I diabetes mouse model, diabetic complications in the heart; assay type: in vivo
Experimental: To determine the effects of MitoG-amide on diabetic complications in the heart a well-established mouse model of type I diabetes was used, based on destruction of the beta-cells in the pancreas by administration of the beta-cell toxin streptozotocin (STZ; obtainable from Selleck Chemicals, Munich, Germany). Mice that were 6-7 week old C57Bl6/J mice (>20 g) were administered STZ (50 mg/kg by intraperitoneal injection) on 5 consecutive days. The death of the beta-cells and the induction of the high blood glucose associated with Type I diabetes was confirmed by weekly blood glucose tests on mice tail vein blood sample. A blood glucose level >17 mmol/l was considered diabetic. For experiments, mice were divided into three groups: (a) control; (b) STZ-induced Type I diabetes; and (c) STZ-induced Type I diabetic animals treated with MitoG-amide (10 mg/kg body weight once per day via gavage). This was repeated for 12 weeks (FIG. 13). At the end of the protocol, mice underwent cardiac magnetic resonance imaging (MRI) measurement (FIG. 14) followed by left ventricular catheter-based Pressure/Volume (P/V) measurement (FIG. 15). The MRI and P/V loop measurements were performed on the same day and the MRI volume measures were used as correction for the P/V loop.
For the cardiac magnetic resonance imaging (MRI) measurement a standard cardiac MRI protocol with a 4.7T Bruker BioSpec system was performed 24 h after surgery. Anaesthesia was induced with 3% and maintained with 1.25% isoflurane in oxygen. Temperature was monitored with a rectal probe and maintained constant via a heated water blanket, respiration was monitored using a pillow connected to a piezoelectric transducer. Electrocardiogram (ECG) signals were monitored with neonatal graphite (3M) electrodes, placed over the front left and rear right paws.
A 12 cm diameter birdcage was used to transmit the signal and a 4 channel cardiac array coil was used for signal reception. The imaging protocol consisted of scout scans followed by ECG-gated fast imaging with steady state […] (FISP) slices (repetition time/echo time TR/TE 6/2.4 ms 13-20 frames, 3.5 cm field of view (FOV), 256 matrix, 1 mm slice thickness, bandwidth 64.1 kHz, flip angle (FA) 20°, 2 sampling average [number of excitations, NEX]), in the long-axis and in the short-axis to cover the whole heart. In post processing, volumes during different phases of the ECG were delineated and integrated over whole heart using Simpson's rule. Global functional parameters were obtained including ejection fraction, the fraction of blood ejected into the circulation during one heartbeat.
For the Pressure/Volume (P/V) measurement, left ventricular catheterization via the right carotid artery was carried out using a 1.2 F pressure-catheter (Scisense Inc., London, Canada).
The results of the long-term treatment of the STZ-induced Type I diabetes administered with MitoGamide on body weight, blood glucose and heart rate were compared with placebo-treated STZ mice and controls (FIG. 16). The blood glucose was measured on whole blood using Johnson and Johnson's OneTouch® Ultra Blood Glucose Monitoring System. The heart rate was measured during use of the P/V loop catheter and recorded.
To assess the effect of MitoGamide on the well-known detrimental effects of long-term hyperglycaemia in Type I diabetes heart function was measured by MRI and by P/V loop measurement (FIG. 17). Mice that were 6-7 week old C57Bl6/J mice (>20 g) were administered STZ (50 mg/kg by intraperitoneal injection) on 5 consecutive days. The death of the beta-cells and the induction of the high blood glucose associated with Type I diabetes was confirmed by weekly blood glucose tests on mice tail vein blood sample. A blood glucose level >17 mmol/l was considered diabetic. […]

[5] = 10 mg/kg once per day via gavage, 12 weeks
[6] = MRI, 10 mg/kg once per day via gavage
[7] = P/V loop, 10 mg/kg once per day via gavage

| Compound | protection against methylglyoxal-induced respiratory depression [2] | protection against glyoxal-induced respiratory depression [2] | protection against methylglyoxal-induced cell death (C2C12 cells) | protection against glyoxal-induced cell death (C2C12 cells) | protection against glyoxal-induced cell death (BAECs [3]) | protection against methylglyoxal-induced cell death (BAECs [3]) | amounts of MQE and QE detected after exogenous methylglyoxal or glyoxal (BAECs [1]) | further results |
| --- | --- | --- | --- | --- | --- | --- | --- | --- |
| NC(CCC(=O)NC(CSCc1ccc(Br)cc1)C(=O)NCC(=O)OC1CCCC1)C(=O)OC1CCCC1 (centres unmarked) [bromobenzyl glutathione cyclopentyl diester] |  |  |  |  |  |  |  | amount of MQE and QE under high glucose (BAECs [1]; high glucose, 4 h, glyoxalase I inhibitor): increased |
| CCCC[P+](c1ccccc1)(c1ccccc1)c1ccccc1 [ButylTPP] | not significantly protective | not significantly protective | not significantly protective | not significantly protective | not significantly protective | not significantly protective |  |  |
| Nc1ccc(C(=O)NCCC[P+](c2ccccc2)(c2ccccc2)c2ccccc2)cc1N [MitoGamide, [3-(3,4′-Diaminobenzoylamino)-prop-1-yl]triphenylphosphonium m esylate] |  |  |  |  |  |  |  | effect on STZ-induced decrease in body weight [4, 5]: neither of which were affected; effect on STZ-induced increase in blood glucose [4, 5]: neither of which were affected; heart rate [4, 5]: neither STZ- or MitoGamide-treatment affected heart rate; increase in diastolic stiffness in diabetic mice ([4]; MRI-corrected P/V loops, 10 mg/kg once per day via gavage): prevented; end diastolic volume impaired by STZ [4, 6]: not ameliorated; systolic ejection fraction [4, 6]: neither STZ nor MitoGamide had any effect; increase in end diastolic pressure in diabetic mice [4, 7]: prevented; left ventricular diastolic time constant (Tau Weiss) impaired by STZ [4, 7]: not ameliorated; oxidative damage in the heart (4-hydroxynonenal staining) ([4]; heart histology, antibody against 4HNE): decreased oxidative damage |
| CCCCCCOc1ccc(N)c(N)c1 [HP, 4-Hexyloxybenzene-1,2-diamine] | not significantly protective | not significantly protective | not significantly protective | not significantly protective | not significantly protective | not significantly protective |  |  |
| N=C(N)NN [AG, aminoguanidine] |  |  |  |  |  |  | reduced | formation of MQE under high glucose (BAECs [1]; 30 mM D-glucose/10 mM aminoguanidinium, 4 h): decreased |
| N#CC(C#N)=NNc1ccc(OC(F)(F)F)cc1 [FCCP, carbonylcyanide p-trifluoromethoxyphenylhydrazone] |  |  |  |  |  |  | reduced | formation of MQE/QE under high glucose (BAECs [1]; high glucose, with uncoupler): blocked |
